Measured values from ChEMBL document CHEMBL1143937, “1-deoxyrubralactone, a novel specific inhibitor of families X and Y of eukaryotic DNA polymerases from a fungal strain derived from sea algae” (Bioorg Med Chem, 2008).
Active and inactive are the calls of the source. The rule behind the calls is not given here.

Legend:
[1] = species on record: Bos taurus; experiment: Inhibition of calf DNA polymerase alpha at 100 uM
[2] = target: T1, DNA polymerase delta catalytic subunit (Homo sapiens) (UniProt P28340); experiment: Inhibition of human DNA polymerase delta at 100 uM
T1 sequence (whole entry): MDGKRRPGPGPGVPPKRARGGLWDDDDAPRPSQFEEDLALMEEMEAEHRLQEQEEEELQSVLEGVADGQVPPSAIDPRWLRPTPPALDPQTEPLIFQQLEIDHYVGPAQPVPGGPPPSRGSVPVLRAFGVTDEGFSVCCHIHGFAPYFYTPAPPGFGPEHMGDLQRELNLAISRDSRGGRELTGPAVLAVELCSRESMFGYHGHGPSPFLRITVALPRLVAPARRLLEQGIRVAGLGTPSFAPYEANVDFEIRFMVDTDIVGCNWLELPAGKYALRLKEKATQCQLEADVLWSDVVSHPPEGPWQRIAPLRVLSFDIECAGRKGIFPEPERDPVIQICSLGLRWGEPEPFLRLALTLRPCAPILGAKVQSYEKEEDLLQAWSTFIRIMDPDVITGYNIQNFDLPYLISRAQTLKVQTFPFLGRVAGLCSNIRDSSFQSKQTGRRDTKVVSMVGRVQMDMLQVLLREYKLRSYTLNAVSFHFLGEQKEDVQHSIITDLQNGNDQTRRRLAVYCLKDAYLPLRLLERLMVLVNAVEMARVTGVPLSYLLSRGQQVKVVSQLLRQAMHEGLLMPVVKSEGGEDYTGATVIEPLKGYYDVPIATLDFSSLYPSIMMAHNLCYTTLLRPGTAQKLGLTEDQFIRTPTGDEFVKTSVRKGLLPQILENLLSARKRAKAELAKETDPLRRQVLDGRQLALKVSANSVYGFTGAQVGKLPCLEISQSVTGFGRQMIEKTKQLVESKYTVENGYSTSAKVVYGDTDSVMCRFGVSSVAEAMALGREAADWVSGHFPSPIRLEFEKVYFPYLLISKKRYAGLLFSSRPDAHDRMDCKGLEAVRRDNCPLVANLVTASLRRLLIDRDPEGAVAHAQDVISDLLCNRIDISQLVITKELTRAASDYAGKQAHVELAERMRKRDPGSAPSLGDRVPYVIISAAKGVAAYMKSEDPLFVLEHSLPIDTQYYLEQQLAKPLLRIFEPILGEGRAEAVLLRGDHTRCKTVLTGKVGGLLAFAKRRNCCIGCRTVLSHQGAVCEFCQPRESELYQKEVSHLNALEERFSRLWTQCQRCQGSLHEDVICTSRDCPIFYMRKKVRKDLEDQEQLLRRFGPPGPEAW

[3] = species on record: Homo sapiens; experiment: Inhibition of human DNA polymerase epsilon at 100 uM
[4] = tested on: Brassica oleracea; experiment: Inhibition of cauliflower DNA polymerase alpha at 100 uM
[5] = tested on: Brassica oleracea; experiment: Inhibition of cauliflower DNA polymerase beta at 100 uM
[6] = tested on: Escherichia coli; experiment: Inhibition of Escherichia coli DNA polymerase 1 at 100 uM
[7] = tested on: Tequatrovirus T4; experiment: Inhibition of T4 DNA polymerase at 100 uM
[8] = tested on: Thermus aquaticus; experiment: Inhibition of Taq DNA polymerase at 100 uM
[9] = species on record: Bos taurus; experiment: Inhibition of calf primase DNA polymerase alpha at 100 uM
[10] = target: Human immunodeficiency virus type 1 reverse transcriptase (Human immunodeficiency virus 1) (UniProt Q72547); experiment: Inhibition of human immunodeficiency virus 1 reverse transcriptase at 100 uM
[11] = target: Telomerase reverse transcriptase (Homo sapiens) (UniProt O14746); experiment: Inhibition of human telomerase at 100 uM
[12] = tested on: Escherichia phage T7; experiment: Inhibition of T7 RNA polymerase […] at 100 uM
[13] = target: Inosine-5'-monophosphate dehydrogenase 2 (Mus musculus) (UniProt P24547); experiment: Inhibition of mouse IMP dehydrogenase 2 at 100 uM
[14] = target: T2, DNA topoisomerase 1 (Homo sapiens) (UniProt P11387); experiment: Inhibition of human DNA topoisomerase 1 at 100 uM
T2 sequence (whole entry): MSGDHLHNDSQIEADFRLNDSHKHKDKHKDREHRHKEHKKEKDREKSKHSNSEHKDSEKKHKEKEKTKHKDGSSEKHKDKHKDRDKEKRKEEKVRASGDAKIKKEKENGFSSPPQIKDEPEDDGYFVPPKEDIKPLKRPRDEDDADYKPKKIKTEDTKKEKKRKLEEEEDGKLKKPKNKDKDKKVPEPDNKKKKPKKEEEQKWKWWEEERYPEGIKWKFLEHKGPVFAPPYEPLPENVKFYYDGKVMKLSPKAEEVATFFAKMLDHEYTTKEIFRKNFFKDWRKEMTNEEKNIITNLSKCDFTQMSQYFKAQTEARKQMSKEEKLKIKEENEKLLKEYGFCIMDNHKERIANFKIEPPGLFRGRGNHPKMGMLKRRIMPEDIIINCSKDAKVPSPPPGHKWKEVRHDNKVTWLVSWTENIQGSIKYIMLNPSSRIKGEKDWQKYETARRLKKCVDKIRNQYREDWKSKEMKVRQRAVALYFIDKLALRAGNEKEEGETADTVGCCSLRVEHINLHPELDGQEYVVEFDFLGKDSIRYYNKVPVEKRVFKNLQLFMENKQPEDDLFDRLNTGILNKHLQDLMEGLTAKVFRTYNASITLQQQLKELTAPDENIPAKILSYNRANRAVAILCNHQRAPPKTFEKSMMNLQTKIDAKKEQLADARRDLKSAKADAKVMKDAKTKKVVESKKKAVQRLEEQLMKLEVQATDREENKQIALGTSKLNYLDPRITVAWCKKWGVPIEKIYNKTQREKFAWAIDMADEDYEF

[15] = species on record: Homo sapiens; experiment: Inhibition of human DNA topoisomerase 2 at 100 uM
[16] = target: Polynucleotide kinase (Enterobacteria phage T4) (UniProt P06855); experiment: Inhibition of T4 polynucleotide kinase at 100 uM; conditions: Tequatrovirus T4
[17] = target: Deoxyribonuclease-1 (Bos taurus) (UniProt P00639); experiment: Inhibition of bovine deoxyribonuclease 1 at 100 uM
[18] = target: DNA polymerase beta (Rattus norvegicus, UniProt P06766); experiment: Inhibition of rat DNA polymerase beta
[19] = target: T3, DNA polymerase lambda (Homo sapiens) (UniProt Q9UGP5); experiment: Inhibition of human DNA polymerase lambda at 100 uM
T3 sequence (whole entry): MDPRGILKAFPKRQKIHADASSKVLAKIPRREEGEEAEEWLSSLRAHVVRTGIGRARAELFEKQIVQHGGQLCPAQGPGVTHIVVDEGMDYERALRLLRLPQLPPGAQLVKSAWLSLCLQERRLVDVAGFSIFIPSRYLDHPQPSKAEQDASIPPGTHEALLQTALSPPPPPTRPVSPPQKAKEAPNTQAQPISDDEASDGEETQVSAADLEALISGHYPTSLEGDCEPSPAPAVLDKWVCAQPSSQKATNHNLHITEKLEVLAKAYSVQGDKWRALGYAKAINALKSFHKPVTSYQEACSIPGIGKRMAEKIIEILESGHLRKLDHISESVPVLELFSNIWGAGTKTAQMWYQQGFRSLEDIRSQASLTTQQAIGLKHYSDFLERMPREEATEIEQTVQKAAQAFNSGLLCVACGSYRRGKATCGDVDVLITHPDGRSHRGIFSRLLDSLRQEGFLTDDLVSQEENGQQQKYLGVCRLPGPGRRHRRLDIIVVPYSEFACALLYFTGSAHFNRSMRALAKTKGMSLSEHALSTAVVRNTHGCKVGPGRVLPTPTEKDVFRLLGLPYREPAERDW

[20] = species on record: Bos taurus; experiment: Inhibition of calf terminal deoxynucleotidyl transferase at 100 uM
[21] = target: T4, DNA polymerase eta (Homo sapiens) (UniProt Q9Y253); experiment: Inhibition of human DNA polymerase eta at 100 uM
T4 sequence (whole entry): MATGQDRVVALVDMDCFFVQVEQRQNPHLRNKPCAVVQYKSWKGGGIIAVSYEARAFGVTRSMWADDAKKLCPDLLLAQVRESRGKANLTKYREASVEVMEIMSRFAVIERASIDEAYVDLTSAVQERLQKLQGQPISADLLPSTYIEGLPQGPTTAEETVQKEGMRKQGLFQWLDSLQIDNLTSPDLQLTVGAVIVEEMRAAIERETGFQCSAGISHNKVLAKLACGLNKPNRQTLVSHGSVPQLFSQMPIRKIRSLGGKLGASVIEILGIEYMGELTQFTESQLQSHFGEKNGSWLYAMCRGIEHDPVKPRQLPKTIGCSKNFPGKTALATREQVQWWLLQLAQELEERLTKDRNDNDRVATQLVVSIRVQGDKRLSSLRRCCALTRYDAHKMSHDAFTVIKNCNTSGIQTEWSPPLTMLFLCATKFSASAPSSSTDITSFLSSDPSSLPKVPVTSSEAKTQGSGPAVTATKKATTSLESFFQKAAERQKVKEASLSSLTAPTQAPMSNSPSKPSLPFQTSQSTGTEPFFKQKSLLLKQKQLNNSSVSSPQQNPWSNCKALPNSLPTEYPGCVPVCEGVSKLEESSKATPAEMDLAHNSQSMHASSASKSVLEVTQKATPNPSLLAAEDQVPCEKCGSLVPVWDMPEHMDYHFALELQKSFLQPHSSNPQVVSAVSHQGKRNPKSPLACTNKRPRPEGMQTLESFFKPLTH

[22] = target: T5, DNA polymerase iota (Homo sapiens) (UniProt Q9UNA4); experiment: Inhibition of human DNA polymerase iota at 100 uM
T5 sequence (whole entry): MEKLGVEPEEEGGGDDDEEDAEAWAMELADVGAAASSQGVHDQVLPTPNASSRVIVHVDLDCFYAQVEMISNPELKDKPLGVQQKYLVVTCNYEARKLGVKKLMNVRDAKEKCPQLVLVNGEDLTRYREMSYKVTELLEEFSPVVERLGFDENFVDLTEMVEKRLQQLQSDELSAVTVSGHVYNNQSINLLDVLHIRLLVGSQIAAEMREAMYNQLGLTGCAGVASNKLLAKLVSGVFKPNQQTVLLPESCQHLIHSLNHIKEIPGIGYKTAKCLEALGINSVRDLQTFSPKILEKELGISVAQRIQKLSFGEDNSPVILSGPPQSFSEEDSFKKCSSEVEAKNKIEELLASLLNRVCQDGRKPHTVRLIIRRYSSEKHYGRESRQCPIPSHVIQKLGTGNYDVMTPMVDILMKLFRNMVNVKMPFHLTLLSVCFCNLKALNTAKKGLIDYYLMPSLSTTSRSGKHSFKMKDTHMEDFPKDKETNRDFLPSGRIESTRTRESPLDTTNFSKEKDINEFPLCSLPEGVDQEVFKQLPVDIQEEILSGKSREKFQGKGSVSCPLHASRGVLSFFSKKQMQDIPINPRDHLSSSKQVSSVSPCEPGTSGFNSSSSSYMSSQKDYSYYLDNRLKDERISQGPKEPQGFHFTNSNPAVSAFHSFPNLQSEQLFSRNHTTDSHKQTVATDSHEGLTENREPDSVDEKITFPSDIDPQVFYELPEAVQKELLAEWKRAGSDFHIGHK

[23] = target: T6, DNA polymerase kappa (Homo sapiens, UniProt Q9UBT6); experiment: Inhibition of human DNA polymerase kappa
T6 sequence (Q9UBT6 whole entry): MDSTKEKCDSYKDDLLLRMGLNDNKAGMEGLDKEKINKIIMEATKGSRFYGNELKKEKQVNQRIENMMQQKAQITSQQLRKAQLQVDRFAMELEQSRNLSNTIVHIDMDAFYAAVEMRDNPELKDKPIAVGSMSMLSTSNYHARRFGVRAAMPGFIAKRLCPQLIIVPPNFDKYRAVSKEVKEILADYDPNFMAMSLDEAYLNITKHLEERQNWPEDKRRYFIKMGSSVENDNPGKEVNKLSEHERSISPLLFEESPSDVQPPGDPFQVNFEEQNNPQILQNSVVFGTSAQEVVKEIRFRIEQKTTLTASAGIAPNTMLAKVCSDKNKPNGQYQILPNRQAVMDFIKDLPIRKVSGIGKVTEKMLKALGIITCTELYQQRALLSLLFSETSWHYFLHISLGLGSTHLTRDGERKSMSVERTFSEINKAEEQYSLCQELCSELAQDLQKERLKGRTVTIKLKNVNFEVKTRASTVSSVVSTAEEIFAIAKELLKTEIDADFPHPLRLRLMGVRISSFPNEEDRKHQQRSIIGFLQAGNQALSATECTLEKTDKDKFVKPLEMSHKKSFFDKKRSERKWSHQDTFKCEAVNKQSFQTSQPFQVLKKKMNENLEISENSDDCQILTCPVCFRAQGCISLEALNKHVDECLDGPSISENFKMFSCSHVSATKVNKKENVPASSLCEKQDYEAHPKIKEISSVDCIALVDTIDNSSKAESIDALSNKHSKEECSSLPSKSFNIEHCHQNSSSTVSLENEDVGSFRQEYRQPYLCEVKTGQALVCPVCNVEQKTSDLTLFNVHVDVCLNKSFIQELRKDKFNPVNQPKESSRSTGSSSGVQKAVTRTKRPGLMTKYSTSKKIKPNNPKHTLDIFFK

[24] = species on record: Homo sapiens; experiment: Inhibition of human DNA polymerase gamma at 100 uM

Telomerase reverse transcriptase (Homo sapiens), sequence (O14746 whole entry): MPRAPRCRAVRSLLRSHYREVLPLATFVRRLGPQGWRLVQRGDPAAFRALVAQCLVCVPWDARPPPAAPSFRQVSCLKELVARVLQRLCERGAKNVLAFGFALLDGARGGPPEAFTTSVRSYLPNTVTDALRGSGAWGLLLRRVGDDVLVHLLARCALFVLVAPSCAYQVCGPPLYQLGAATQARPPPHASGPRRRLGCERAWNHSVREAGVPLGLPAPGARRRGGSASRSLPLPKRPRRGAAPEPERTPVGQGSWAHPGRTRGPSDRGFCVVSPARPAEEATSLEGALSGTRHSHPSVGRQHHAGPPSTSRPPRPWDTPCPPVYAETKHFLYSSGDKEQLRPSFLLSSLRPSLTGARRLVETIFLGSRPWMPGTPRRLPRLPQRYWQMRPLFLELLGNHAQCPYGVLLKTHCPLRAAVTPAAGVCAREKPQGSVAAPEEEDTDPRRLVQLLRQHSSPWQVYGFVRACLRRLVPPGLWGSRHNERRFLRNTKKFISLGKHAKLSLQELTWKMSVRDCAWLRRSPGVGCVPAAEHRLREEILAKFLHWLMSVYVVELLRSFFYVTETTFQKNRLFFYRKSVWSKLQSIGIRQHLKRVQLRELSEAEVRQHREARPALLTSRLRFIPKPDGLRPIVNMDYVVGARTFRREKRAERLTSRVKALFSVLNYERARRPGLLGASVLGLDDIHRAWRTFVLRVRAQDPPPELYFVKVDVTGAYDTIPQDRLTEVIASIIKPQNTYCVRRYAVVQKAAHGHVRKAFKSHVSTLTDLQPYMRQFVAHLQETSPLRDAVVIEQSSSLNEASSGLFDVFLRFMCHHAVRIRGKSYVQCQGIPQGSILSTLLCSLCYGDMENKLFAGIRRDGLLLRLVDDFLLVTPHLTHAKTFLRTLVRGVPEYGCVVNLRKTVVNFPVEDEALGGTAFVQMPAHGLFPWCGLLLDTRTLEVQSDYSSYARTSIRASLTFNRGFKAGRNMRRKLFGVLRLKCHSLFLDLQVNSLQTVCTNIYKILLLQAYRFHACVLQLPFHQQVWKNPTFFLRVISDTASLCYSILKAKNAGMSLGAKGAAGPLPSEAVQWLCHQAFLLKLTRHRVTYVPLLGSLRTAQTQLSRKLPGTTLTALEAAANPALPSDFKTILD
Polynucleotide kinase (Enterobacteria phage T4), sequence (P06855 whole entry): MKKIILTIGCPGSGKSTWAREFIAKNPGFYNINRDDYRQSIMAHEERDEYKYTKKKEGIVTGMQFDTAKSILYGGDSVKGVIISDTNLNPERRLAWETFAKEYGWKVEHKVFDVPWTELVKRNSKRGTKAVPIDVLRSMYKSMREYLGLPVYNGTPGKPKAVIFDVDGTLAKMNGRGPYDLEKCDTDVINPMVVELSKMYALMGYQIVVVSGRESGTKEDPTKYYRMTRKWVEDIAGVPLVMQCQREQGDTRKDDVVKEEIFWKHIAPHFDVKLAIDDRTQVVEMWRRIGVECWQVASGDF
Deoxyribonuclease-1 (Bos taurus), sequence (P00639 whole entry): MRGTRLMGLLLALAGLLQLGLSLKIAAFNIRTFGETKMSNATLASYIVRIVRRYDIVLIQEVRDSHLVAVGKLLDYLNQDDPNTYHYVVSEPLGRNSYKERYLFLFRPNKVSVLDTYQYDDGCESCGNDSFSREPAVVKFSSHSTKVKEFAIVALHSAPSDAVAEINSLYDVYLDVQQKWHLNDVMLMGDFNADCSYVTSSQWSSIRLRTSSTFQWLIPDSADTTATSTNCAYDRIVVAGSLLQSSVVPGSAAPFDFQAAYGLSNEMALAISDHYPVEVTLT
Inosine-5'-monophosphate dehydrogenase 2 (Mus musculus), sequence (P24547 whole entry, looked up): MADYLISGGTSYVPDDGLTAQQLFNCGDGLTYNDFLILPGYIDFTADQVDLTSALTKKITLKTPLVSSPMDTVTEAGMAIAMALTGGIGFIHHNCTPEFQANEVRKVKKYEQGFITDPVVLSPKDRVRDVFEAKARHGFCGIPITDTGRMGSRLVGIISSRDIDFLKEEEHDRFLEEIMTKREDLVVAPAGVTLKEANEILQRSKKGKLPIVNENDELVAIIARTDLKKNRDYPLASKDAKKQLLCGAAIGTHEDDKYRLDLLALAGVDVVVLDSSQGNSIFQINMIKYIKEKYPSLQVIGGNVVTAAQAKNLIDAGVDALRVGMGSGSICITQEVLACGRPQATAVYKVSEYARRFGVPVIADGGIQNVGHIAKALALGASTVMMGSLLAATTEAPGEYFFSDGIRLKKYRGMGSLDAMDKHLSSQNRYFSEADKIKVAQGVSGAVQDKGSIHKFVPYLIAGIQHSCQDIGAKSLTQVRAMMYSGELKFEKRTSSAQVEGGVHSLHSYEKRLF

| Activity [1] | Activity [2] | Activity [3] | Activity [4] | Activity [5] | Activity [6] | Activity [7] | Activity [8] | Activity [9] | Activity [10] | Activity [11] | Activity [12] | Activity [13] | Activity [14] | Activity [15] | Activity [16] | Activity [17] | IC50 [18] | Activity [19] | Activity [20] | Structure (SMILES) | further results |
| --- | --- | --- | --- | --- | --- | --- | --- | --- | --- | --- | --- | --- | --- | --- | --- | --- | --- | --- | --- | --- | --- |
| inactive | inactive | inactive | inactive | inactive | inactive | inactive | inactive | inactive | inactive | inactive | inactive | inactive | inactive | inactive | inactive | inactive | 11.9 µM | Active | Active | COc1cc(O)c2c(=O)oc3c(c2c1)C(C)CC3=O (stereo not drawn) | Activity [21]: Active; Activity [22]: Active; IC50 [23]: 59.8 µM; Activity [24]: inactive |
| inactive | inactive | inactive | inactive | inactive | inactive | inactive | inactive | inactive | inactive | inactive | inactive | inactive | inactive | inactive | inactive | inactive | 16.3 µM | Active | Active | COc1cc(O)c2c(c1)C1(OC2=O)C(C)=CC(=O)C1O (stereo not drawn) [TALAROFLAVONE] | Activity [21]: Active; Activity [22]: Active; IC50 [23]: 86.5 µM; Activity [24]: inactive |
